This note sets out measurements from patent publication US20260265248A1, “NOVEL PD-L1 INHIBITORS” (AFFIRMA BIOTECH S. L., priority 2023, published 2026).

The assay has as its target T1, PD-1/PD-L1 (Homo sapiens, UniProt Q9NZQ7).
T1 construct: purchased CisBio
Kind of assay: PD1-PDL1 HTRF assay. The settings on record: PD-1/PD-L1 homogenous time-resolved fluorescence (HTRF) binding assay; Tag1-PDL1 5 nM, Tag2-PD1 50 nM. In a few lines:
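Compound (8 concentrations) was preincubated 15 min at room temperature with Tag1-PD-L1 and Tag2-PD-1, added as 5 nM and 50 nM solutions. Eu-labelled anti-Tag1 and XL665-labelled anti-Tag2 were then added for 1 h, and the 665/620 nm ratio (×10^4; excitation 320 nm) was fitted to the Hill equation for IC50.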
In general terms: In TR-FRET formats the signal depends on donor and acceptor labels being close together.

T1 sequence (Q9NZQ7 19-238 limits assumed): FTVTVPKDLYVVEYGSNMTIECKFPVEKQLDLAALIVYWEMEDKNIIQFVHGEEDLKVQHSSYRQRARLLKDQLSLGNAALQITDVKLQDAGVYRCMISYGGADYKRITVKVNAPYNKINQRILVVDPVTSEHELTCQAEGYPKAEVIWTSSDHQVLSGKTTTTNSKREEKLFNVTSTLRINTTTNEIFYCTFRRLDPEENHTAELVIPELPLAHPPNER

The IC50 is the concentration needed to halve the response being measured. `Cc1c(Nc2nccc3cc(CN4CC[C@@H](O)C4)cnc23)cccc1-c1cccc(-c2ccn3c(-c4ccc(CN5CCC[C@@H]5C(=O)O)cc4)nnc3c2)c1C` [Example 80, (4-(7-(3′-((3-(((R)-3-hydroxypyrrolidin-1-yl)methyl)-1,7-naphthyridin-8-yl)amino)-2,2′-dimethyl-[1,1′-biphenyl]-3-yl)-[1,2,4]triazolo[4,3-α]pyridin-3-yl)benzyl)-D-proline]: the half-maximal inhibitory concentration (IC50) is at most 10 nM.

Turning to `Cc1c(Nc2nccc3cc(CN4CC[C@@H](O)C4)cnc23)cccc1-c1cccc(-c2ccn3c(-c4ccc(CNCCO)cc4)nnc3c2)c1C` [Example 81, (R)-1-((8-((3′-(3-(4-(((2-hydroxyethyl)amino)methyl)phenyl)-[1,2,4]triazolo[4,3-α]pyridin-7-yl)-2,2′-dimethyl-[1,1′-biphenyl]-3-yl)amino)-1,7-naphthyridin-3-yl)methyl)pyrrolidin-3-ol], the IC50 is at most 10 nM.

Take `Cc1c(Nc2nccc3cc(CNCCO)cnc23)cccc1-c1cccc(-c2ccn3c(-c4ccc(CNCCO)cc4)nnc3c2)c1C` [Example 84, 2-((4-(7-(3′-((3-(((2-hydroxyethyl)amino)methyl)-1,7-naphthyridin-8-yl)amino)-2,2′-dimethyl-[1,1′-biphenyl]-3-yl)-[1,2,4]triazolo[4,3-a]pyridin-3-yl)benzyl)amino)ethan-1-ol]: the IC50 is at most 10 nM.

Consider `Cc1c(-c2ccc(CNCCO)cc2)cccc1-c1cccc(-c2ccn3c(NCCO)nnc3c2)c1C` [Example 85, 2-(((3″-(3-((2-hydroxyethyl)amino)-[1,2,4]triazolo[4,3-a]pyridin-7-yl)-2′,2″-dimethyl-[1,1′:3′,1″-terphenyl]-4-yl)methyl)amino)ethan-1-ol], for which the IC50 was 100 to 1000 nM.

In turn, `Cc1c(-c2ccc(CNCCO)cc2)cccc1-c1cccc(-c2ccn3c(CNC[C@@H]4CCC(=O)N4)nnc3c2)c1C` [Example 86, (S)-5-((((7-(4″-(((2-hydroxyethyl)amino)methyl)-2,2′-dimethyl-[1,1′:3′,1″-terphenyl]-3-yl)-[1,2,4]triazolo[4,3-a]pyridin-3-yl)methyl)amino)methyl)pyrrolidin-2-one] displayed an IC50 of 10 to 100 nM.

`Cc1c(-c2ccc(CNCCO)cc2)cccc1-c1cccc(-c2ccn3c(CN4CC[C@@H](C(=O)O)C4)nnc3c2)c1C` [Example 87, (R)-1-((7-(4″-(((2-hydroxyethyl)amino)methyl)-2,2′-dimethyl-[1,1′:3′,1″-terphenyl]-3-yl)-[1,2,4]triazolo[4,3-a]pyridin-3-yl)methyl)pyrrolidine-3-carboxylic acid] came in with an IC50 of 10 to 100 nM.

Regarding `Cc1c(-c2ccc(CNCCO)cc2)cccc1-c1cccc(-c2ccn3c(CN4CCC[C@@H]4C(=O)O)nnc3c2)c1C` [Example 88, ((7-(4″-(((2-hydroxyethyl)amino)methyl)-2,2′-dimethyl-[1,1′:3′,1″-terphenyl]-3-yl)-[1,2,4]triazolo[4,3-α]pyridin-3-yl)methyl)-D-proline], the IC50 lay in the range of 10 to 100 nM.

`Cc1c(-c2ccn3c(CNCCO)nnc3c2)cccc1-c1cccc(-c2ccn3c(CNCCO)nnc3c2)c1C` [Example 89, 2,2′-((((2,2′-dimethyl-[1,1′-biphenyl]-3,3′-diyl)bis([1,2,4]triazolo[4,3-a]pyridine-7,3-diyl))bis(methylene))bis(azanediyl))bis(ethan-1-ol)]: the IC50 lay in the range of 100 to 1000 nM.

Consider `Cc1c(-c2ccc(CNC[C@@H]3CCC(=O)N3)cc2)cccc1-c1cccc(-c2ccn3c(CNC[C@@H]4CCC(=O)N4)nnc3c2)c1C` [Example 90, (S)-5-((((2′,2″-dimethyl-3″-(3-(((((S)-5-oxopyrrolidin-2-yl)methyl)amino)methyl)-[1,2,4]triazolo[4,3-a]pyridin-7-yl)-[1,1′:3′,1″-terphenyl]-4-yl)methyl)amino)methyl)pyrrolidin-2-one], for which the IC50 was at most 10 nM.

`Cc1c(-c2ccc(CNCCO)cc2)cccc1-c1cccc(-c2ccn3c(CNCCO)nnc3c2)c1C` [Example 91, 2-(((7-(4″-(((2-hydroxyethyl)amino)methyl)-2,2′-dimethyl-[1,1′:3′,1″-terphenyl]-3-yl)-[1,2,4]triazolo[4,3-α]pyridin-3-yl)methyl)amino)ethan-1-ol]: the IC50 was in the range of 10 to 100 nM.

The compound `Cc1c(NC(=O)c2ccc(CNCCO)cn2)cccc1-c1cccc(-c2ccn3c(CNCCO)nnc3c2)c1C` [Example 92, 5-(((2-hydroxyethyl)amino)methyl)-N-(3′-(3-(((2-hydroxyethyl)amino)methyl)-[1,2,4]triazolo[4,3-a]pyridin-7-yl)-2,2′-dimethyl-[1,1′-biphenyl]-3-yl)picolinamide] displayed an IC50 of at most 10 nM.

Compound `Cc1c(NC(=O)c2ccc(CNCCO)cc2)cccc1-c1cccc(-c2ccn3c(CNCCO)nnc3c2)c1C` [Example 93, 4-(((2-hydroxyethyl)amino)methyl)-N-(3′-(3-(((2-hydroxyethyl)amino)methyl)-[1,2,4]triazolo[4,3-α]pyridin-7-yl)-2,2′-dimethyl-[1,1′-biphenyl]-3-yl)benzamide] displayed an IC50 of 100 to 1000 nM.

Take `COc1nc(-c2cccc(-c3cccc(-c4ccc5nnc(CNC[C@@H]6CCC(=O)N6)n5c4)c3C)c2C)cnc1CNC[C@@H]1CCC(=O)N1` [Example 94, (S)-5-((((5-(2,2′-dimethyl-3′-(3-(((((S)-5-oxopyrrolidin-2-yl)methyl)amino)methyl)-[1,2,4]triazolo[4,3-a]pyridin-6-yl)-[1,1′-biphenyl]-3-yl)-3-methoxypyrazin-2-yl)methyl)amino)methyl)pyrrolidin-2-one]: the IC50 was at most 10 nM.

`Cc1c(NC(=O)c2ccc(CNCCO)cn2)cccc1-c1cccc(-c2ccn3c(CNC[C@@H]4CCC(=O)N4)nnc3c2)c1C` [Example 95, (S)—N-(2,2′-dimethyl-3′-(3-((((5-oxopyrrolidin-2-yl)methyl)amino)methyl)-[1,2,4]triazolo[4,3-a]pyridin-7-yl)-[1,1′-biphenyl]-3-yl)-5-(((2-hydroxyethyl)amino)methyl)picolinamide] showed an IC50 of at most 10 nM.

In turn, `OCCNCc1ccc(-c2cccc(-c3cccc(-c4ccn5c(CNCCO)nnc5c4)c3Cl)c2Cl)cc1` [Example 96, 2-(((2′,2″-dichloro-3″-(3-(((2-hydroxyethyl)amino)methyl)-[1,2,4]triazolo[4,3-a]pyridin-7-yl)-[1,1′:3′,1″-terphenyl]-4-yl)methyl)amino)ethan-1-ol] showed an IC50 of at most 10 nM.

As for `O=C1CC[C@@H](CNCc2ccc(-c3cccc(-c4cccc(-c5ccn6c(CNC[C@@H]7CCC(=O)N7)nnc6c5)c4Cl)c3Cl)cc2)N1` [Example 97, (S)-5-((((21,2″-dichloro-3″-(3-(((((S)-5-oxopyrrolidin-2-yl)methyl)amino)methyl)-[1,2,4]triazolo[4,3-α]pyridin-7-yl)-[1,1′:3′,1″-terphenyl]-4-yl)methyl)amino)methyl)pyrrolidin-2-one], the IC50 is at most 10 nM.

`Cc1c(-c2ccc(CNCCO)cc2)cccc1-c1cccc(-c2ccn3nc(CNCCO)nc3c2)c1C` [Example 98, 2-(((7-(4″-(((2-hydroxyethyl)amino)methyl)-2,2′-dimethyl-[1,1′:3′,1″-terphenyl]-3-yl)-[1,2,4]triazolo[1,5-a]pyridin-2-yl)methyl)amino)ethan-1-ol] yielded a half-inhibitory concentration (IC50) of 10 to 100 nM.
